In the NIST ThermoML archive (doi:10.1021/acs.jced.9b00278) one finds Triple point temperature data, which are given here for 1 compound.

± gives the expanded uncertainty stated by the source.

The conditions of this series: DSC. In general terms: In DSC, transitions show as peaks or steps in heat flow.

As for `O=C(O)c1ccccc1Nc1cccc(C(F)(F)F)c1` [2-[[3-(trifluoromethyl)phenyl]amino]benzoic acid], the Triple point temperature is 410.95 ± 2.1 K (Crystal 1) and 409.15 ± 2.1 K (Metastable crystal).
